We go through 24 compounds from ChEMBL document CHEMBL3593203, “The twin drug approach for novel nicotinic acetylcholine receptor ligands” (Bioorg Med Chem, 2015).

For assay [1], the target named is T1, Neuronal acetylcholine receptor subunit alpha-7 (Rattus norvegicus, UniProt Q05941). The assay is described as follows: Displacement of [3H]-MLA from Sprague-Dawley rat brain alpha7 nicotine acetylcholine receptor after 90 mins by radioligand displacement assay.
Assay [2] is described as follows: Displacement of Torpedo californica electroplax muscle type (alpha1)2beta1gammadelta nicotine acetylcholine receptor (unknown origin) after 90 mins by radioligand displacement assay. Also noted: species or system Tetronarce californica.
Assay [3] deals with T2, Neuronal acetylcholine receptor; alpha4/beta2 (Rattus norvegicus, UniProt P09483+P12390). In words: Displacement of [3H]-epibatidine from Sprague-Dawley rat brain alpha4beta2 nicotine acetylcholine receptor after 90 mins by radioligand displacement assay.
Assay [4] deals with Mus musculus. The assay is described as follows: Antinociceptive activity in ip dosed mouse administered 30 mins prior to testing by hot plate test. The class given is functional.
In assay [5] the target is T1, Neuronal acetylcholine receptor subunit alpha-7. The assay is described as follows: Displacement of [3H]-MLA from alpha7 nicotine acetylcholine receptor in rat brain minus cerebellum after 60 mins by scintillation counting analysis. The class given is tissue-based.
Assay [6] has as its system Mus musculus. The assay is described as follows: Antinociceptive activity in sc dosed ICR mouse administered 5 mins prior to testing by tail-flick method. In kind it is functional.
For assay [7], the target named is T2, Neuronal acetylcholine receptor; alpha4/beta2. The assay is described as follows: Displacement of [3H]-nicotine from alpha4beta2 nicotine acetylcholine receptor in rat brain membranes after 90 mins by liquid scintillation spectrometric analysis. In kind it is cell membranes, Membrane.

The structures appear in SMILES notation.

T1 sequence (Q05941 whole entry): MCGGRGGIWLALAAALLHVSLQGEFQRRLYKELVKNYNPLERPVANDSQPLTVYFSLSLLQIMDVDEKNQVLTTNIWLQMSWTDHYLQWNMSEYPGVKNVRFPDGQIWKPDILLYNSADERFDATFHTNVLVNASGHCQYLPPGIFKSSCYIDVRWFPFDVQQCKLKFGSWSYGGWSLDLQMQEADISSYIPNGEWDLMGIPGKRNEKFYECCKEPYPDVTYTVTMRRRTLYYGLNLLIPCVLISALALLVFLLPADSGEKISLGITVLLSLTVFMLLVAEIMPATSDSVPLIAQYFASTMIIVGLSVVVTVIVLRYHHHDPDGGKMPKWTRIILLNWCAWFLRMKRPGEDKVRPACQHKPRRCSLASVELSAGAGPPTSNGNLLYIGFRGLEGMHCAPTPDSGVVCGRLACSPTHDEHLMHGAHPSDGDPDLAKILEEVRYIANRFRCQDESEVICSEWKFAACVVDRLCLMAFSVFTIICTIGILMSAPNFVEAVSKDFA
T2 sequence (P09483 whole entry): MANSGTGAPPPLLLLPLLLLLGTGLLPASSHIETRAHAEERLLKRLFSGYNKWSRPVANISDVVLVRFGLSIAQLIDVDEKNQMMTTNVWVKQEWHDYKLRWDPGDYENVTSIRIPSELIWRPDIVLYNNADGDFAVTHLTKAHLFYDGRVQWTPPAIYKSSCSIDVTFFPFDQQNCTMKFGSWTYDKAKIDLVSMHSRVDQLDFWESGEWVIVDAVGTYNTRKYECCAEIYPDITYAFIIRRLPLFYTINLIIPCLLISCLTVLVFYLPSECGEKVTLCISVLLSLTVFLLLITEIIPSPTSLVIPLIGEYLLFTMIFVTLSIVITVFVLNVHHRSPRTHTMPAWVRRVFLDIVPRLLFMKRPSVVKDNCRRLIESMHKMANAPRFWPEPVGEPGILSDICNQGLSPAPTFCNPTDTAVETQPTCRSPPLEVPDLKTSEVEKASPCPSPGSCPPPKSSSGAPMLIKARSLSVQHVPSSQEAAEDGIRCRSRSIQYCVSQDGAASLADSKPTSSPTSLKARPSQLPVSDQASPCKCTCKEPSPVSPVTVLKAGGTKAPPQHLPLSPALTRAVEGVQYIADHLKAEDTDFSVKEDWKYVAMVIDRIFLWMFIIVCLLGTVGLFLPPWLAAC
T2 sequence (P12390 whole entry): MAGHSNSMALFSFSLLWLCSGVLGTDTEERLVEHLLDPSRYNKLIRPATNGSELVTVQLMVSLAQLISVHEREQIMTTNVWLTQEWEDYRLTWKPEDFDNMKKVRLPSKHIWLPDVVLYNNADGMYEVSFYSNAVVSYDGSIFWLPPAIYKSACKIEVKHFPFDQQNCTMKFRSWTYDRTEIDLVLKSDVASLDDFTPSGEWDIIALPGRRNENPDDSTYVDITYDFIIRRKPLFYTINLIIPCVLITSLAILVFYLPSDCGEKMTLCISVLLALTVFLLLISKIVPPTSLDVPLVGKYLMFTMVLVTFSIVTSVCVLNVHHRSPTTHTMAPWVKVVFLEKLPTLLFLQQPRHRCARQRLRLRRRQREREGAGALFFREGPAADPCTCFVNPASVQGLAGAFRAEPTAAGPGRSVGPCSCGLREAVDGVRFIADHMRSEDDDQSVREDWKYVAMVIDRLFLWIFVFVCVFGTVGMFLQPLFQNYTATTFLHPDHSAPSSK

Take `CN(C)CCOc1cncc(N2CCCNCC2)c1`: the inhibitory constant (Ki) was more than 1000 nM in assay [1], more than 1000 nM in assay [2] and 6.9 nM in assay [3].

Consider `c1cncc(N2CC3CNCC(C3)C2)c1`, for which the MED in the assay on Mus musculus [4] worked out at 1.9 µmol/kg. As for `CN(C)CCOc1cncc(N2CCCC2)c1`, the Ki in assay [1] and in assay [3] was more than 1000 nM throughout. Turning to `CN(C)CCOc1cncc(N2CCN(C)CC2)c1`, the inhibition constant Ki was more than 1000 nM in assay [1], more than 1000 nM in assay [2] and 66.8 nM in assay [3]. Turning to `CN(C)CCOc1cncc(N2CCC2)c1`, the Ki in assay [1] is more than 1000 nM; in assay [3], 784 nM. The compound `CN(C)CCOc1cc(N2CCCN(C)CC2)cc(F)c1F` displayed an inhibitory constant (Ki) in assay [3] of more than 1000 nM. Turning to `CCN(CC)CCOc1ccc2c(c1)C(=O)c1cc(OCCN(CC)CC)ccc1-2` [TILORONE], the inhibitory constant (Ki) in assay [5] was 110 nM.

For the compound `CN(C)CCOc1cncc(N2CCC(O)CC2)c1`, the Ki is more than 1000 nM in assay [1] and 613 nM in assay [3]. In turn, `CN(C)CCOc1cc(F)cc(N2CCCNCC2)c1` displayed a Ki in assay [3] of more than 1000 nM. Same read-out and setting: with `CN(C)CCOc1cc(F)cc(N2CCN(C)CC2)c1` the figure was more than 1000 nM.

With `CN(C)CCOc1cncc(N2CCNCC2)c1`, the Ki was more than 1000 nM in assay [1], more than 1000 nM in assay [2] and 145 nM in assay [3]. With `CN(C)CCOc1cc(F)cc(N2CCCN(C)CC2)c1`, the Ki in assay [3] is more than 1000 nM. In the case of `CN(C)CCOc1cc(F)cc(N2CC3CNCC(C3)C2)c1`, the inhibition constant Ki in assay [1] is more than 1000 nM; in assay [2], more than 1000 nM; in assay [3], 186 nM.

On to `CN(C)CCOc1cncc(-c2cncc(OCCN(C)C)c2)c1`, for which the figures for the Ki in assay [1], in assay [2] and in assay [3] were more than 1000 nM, 905 nM and 290 nM, respectively. For `CN(C)CCOc1cc(F)cc(N2CCNCC2)c1`, the Ki in assay [3] is more than 1000 nM.

For the compound `CN(C)CCOc1cc(N2CCNCC2)cc(F)c1F`, the Ki in assay [3] is more than 1000 nM. The same measure, in the same setting: then `CN(C)CCOc1cncc(N2CCCN(C)CC2)c1`, with 212 nM; and `CN(C)CCOc1cc(N2CCCNCC2)cc(F)c1F`, with more than 1000 nM; and `CN(C)CCOc1cc(N2CCN(C)CC2)cc(F)c1F`, with more than 1000 nM. Take `CN(C)CCOc1cccnc1`: in the assay with Mus musculus [6], it took a dose of 15 mg/kg to reach the 50% effect level (ED50). In assay [3], `CN(C)CCOc1cncc(N2CCOCC2)c1` returned an inhibitory constant (Ki) of more than 1000 nM. `CN(C)CCOc1cncc(N2CCCCC2)c1`: the inhibitory constant (Ki) in assay [1] and in assay [3] was more than 1000 nM throughout.

Take `CN(C)CCOc1cncc(N2CC3CNCC(C3)C2)c1`: the inhibitory constant (Ki) in assay [1] was more than 1000 nM; in assay [2] it was more than 1000 nM; in assay [3] it was 0.188 nM. `CN1CCCC1c1cncc(C2CCCN2C)c1` (stereo not given) had an inhibition constant (Ki) in assay [7] of 1180 nM.
